# Assay results taken from US20130302442A1, “METHODS OF USING (4S,4AS,5AR,12AS)-4-DIMETHYLAMINO-3,10,12,12A-TETRAHYDROXY-7-[(METHOXY(METHYL)AMINO)-METHYL]-1,11-DIOXO-1,4,4A,5,5A,6,11,12A-OCTAHYDRO-NAPHTHACENE-2-CARBOXYLIC ACID AMIDE” (priority 2012, published 2013).
# Read-outs that look alike come from different tables or passages of the source.
# Key:
# [1] = system: Bacteroides thetaiotaomicron; assay: In vitro MIC testing against anaerobic bacteria; type: cell-based
# [2] = system: Bacteroides ovatus; assay: In vitro MIC testing against anaerobic bacteria; type: cell-based
# [3] = system: Propionibacterium acnes; assay: In vitro MIC testing against anaerobic bacteria; type: cell-based; conditions: Cutibacterium acnes, read-out: MIC
# [4] = system: Peptostreptococcus anaerobius; assay: In vitro MIC testing against anaerobic bacteria; type: cell-based
# [5] = system: Clostridium difficile; assay: In vitro MIC testing against anaerobic bacteria; type: cell-based
# [6] = system: Bifidobacterium infantis; assay: In vitro MIC testing against anaerobic bacteria; type: cell-based; conditions: ATCC15702; Bifidobacterium infantis 3966, ATCC 15702
# [7] = system: Peptostreptococcus micros; assay: In vitro MIC testing against anaerobic bacteria; type: cell-based; conditions: Parvimonas micra, read-out: MIC
# [8] = system: S. agalactiae; assay: In vitro MIC testing, antibacterial spectrum of activity; type: cell-based
# [9] = system: Bacteroides vulgatus; assay: In vitro MIC testing against anaerobic bacteria; type: cell-based
# [10] = system: P. aeruginosa; assay: In vitro MIC testing, antibacterial spectrum of activity; type: cell-based; conditions: Pseudomonas aeruginosa; P. aeruginosa (11 isolates)
# [11] = system: E. faecium; assay: as above; type: cell-based; conditions: for MIC / MIC50 / MIC90: Enterococcus faecium; for MIC50: read-out: MIC50; for MIC90: read-out: MIC90
# [12] = system: Porphyromonas asaccharolytica; assay: In vitro MIC testing against anaerobic bacteria; type: cell-based
# [13] = system: Clostridium perfringens; assay: microbe, parasite or virus in culture; type: cell-based
# [14] = system: Lactobacillus acidophilus; assay: In vitro MIC testing against anaerobic bacteria; type: cell-based; conditions: Lactobacillus acidophilus 0681
# [15] = system: Lactobacillus casei; assay: In vitro MIC testing against anaerobic bacteria; type: cell-based; conditions: Lacticaseibacillus casei, ATCC393; Lactobacillus casei 1722, ATCC 393
# [16] = system: Eikenella corrodens; assay: In vitro MIC testing against anaerobic bacteria; type: cell-based; conditions: Eikenella corrodens, ATCC43278
# [17] = system: S. epidermidis; assay: In vitro MIC testing, antibacterial spectrum of activity; type: cell-based, Staphylococcus epidermidis; conditions: for MIC50 / MIC90: Staphylococcus epidermidis; for MIC50: read-out: MIC50; for MIC90: read-out: MIC90
# [18] = system: K. pneumoniae; assay: as above; type: cell-based; conditions: Klebsiella pneumoniae
# [19] = system: P. granulosum; assay: as above; type: cell-based; conditions: P. granulosum [clinical isolates] (3 isolates)
# [20] = system: Veillonella parvula; assay: In vitro MIC testing against anaerobic bacteria; type: cell-based; conditions: ATCC17745; Veillonella parvula 1272, ATCC 17745
# [21] = system: Bifidobacterium bifidum; assay: In vitro MIC testing against anaerobic bacteria; type: cell-based; conditions: ATCC15696; Bifidobacterium bifidum 3965, ATCC 15696
# [22] = system: Lactobacillus plantarum; assay: In vitro MIC testing against anaerobic bacteria; type: cell-based; conditions: Lactiplantibacillus plantarum, ATCC39268; Lactobacillus plantarum 2791, ATCC 39268
# [23] = system: E. coli; assay: In vitro MIC testing, antibacterial spectrum of activity; type: cell-based; conditions: E. coli [tetS] (7 isolates)
# [24] = system: Bifidobacterium longum; assay: In vitro MIC testing against anaerobic bacteria; type: cell-based; conditions: ATCC15707; Bifidobacterium longum 3968, ATCC 15707
# [25] = system: Bifidobacterium brevi; assay: In vitro MIC testing against anaerobic bacteria; type: cell-based; conditions: ATCC15698; Bifidobacterium brevi 3967, ATCC 15698
# [26] = system: Prevotella melaninogenica; assay: In vitro MIC testing against anaerobic bacteria; type: cell-based; conditions: Prevotella melaninogenica 3443, read-out: MIC
# [27] = system: E. faecalis; assay: In vitro MIC testing, antibacterial spectrum of activity; type: cell-based
# [28] = system: Fusobacterium nucleatum; assay: In vitro MIC testing against anaerobic bacteria; type: cell-based; conditions: ATCC25586; Fusobacterium nucleatum 3962, ATCC 25586; read-out: MIC
# [29] = system: S. pyogenes; assay: In vitro MIC testing, antibacterial spectrum of activity; type: cell-based
# [30] = system: P. avidum; assay: as above; type: cell-based; conditions: P. avidum [clinical isolates] (4 isolates)
# [31] = system: Streptococcus intermedius; assay: In vitro MIC testing against anaerobic bacteria; type: cell-based; conditions: ATCC27335; Streptococcus intermedius 1203, ATCC 27335
# [32] = system: Streptococcus spp. [Group C]; assay: In vitro MIC testing, antibacterial spectrum of activity; type: cell-based; conditions: Streptococcus spp. [Group C] (30 isolates); read-out: MIC50
# [33] = S. epidermidis [MRSE] (32 isolates)
# [34] = S. epidermidis [MSSE] (31 isolates)
compound,measurement,setting,value
"CN(C)c1ccc(O)c2c1C[C@H]1C[C@H]3[C@H](N(C)C)C(O)=C(C(N)=O)C(=O)[C@@]3(O)C(O)=C1C2=O [Minocycline, minocycline]",MIC,[1]; Bacteroides thetaiotaomicron 3399,0.03 µg/mL
same,MIC,[1]; Bacteroides thetaiotaomicron 3496,8 µg/mL
same,MIC,"[2]; Bacteroides ovatus 3503, read-out: MIC",4 µg/mL
same,MIC,"[2]; Bacteroides ovatus 3508, read-out: MIC",0.03 µg/mL
same,MIC,"[3]; ATCC11829, Propionibacterium acnes 1286, ATCC 11829",0.5 µg/mL
same,MIC,[3]; Propionibacterium acnes 1713,0.06 µg/mL
same,MIC,[4]; Peptostreptococcus anaerobius 3526,1 µg/mL
same,MIC,[4]; Peptostreptococcus anaerobius 3531,2 µg/mL
same,MIC,[5]; Clostridioides difficile,0.03 µg/mL
same,MIC,[5]; Clostridium difficile 3584,0.03 µg/mL
same,MIC,[6],0.25 µg/mL
same,MIC,[7]; Peptostreptococcus micros 3432,0.06 µg/mL
same,MIC,[7]; Peptostreptococcus micros 3545,0.25 µg/mL
same,MIC Range,[8]; S. agalactiae [tetS] (3 isolates),0.5-0.5 μg/mL
same,MIC50,"[8]; Streptococcus agalactiae, S. agalactiae (31 isolates), read-out: MIC50",16 µg/mL
same,MIC90,"[8]; Streptococcus agalactiae, S. agalactiae (31 isolates), read-out: MIC90",16 µg/mL
same,MIC,[9]; Bacteroides vulgatus 3494,8 µg/mL
same,MIC,"[9]; Phocaeicola vulgatus, Bacteroides vulgatus 3389, read-out: MIC",8 µg/mL
same,MIC50,[10],> 32 µg/mL
same,MIC90,[10],> 32 µg/mL
same,MIC Range,[11]; E. faecium [tetR] (6 isolates),2 to 32 µg/mL
same,MIC Range,[11]; E. faecium [tetS] (4 isolates),0.25 to 0.5 µg/mL
same,MIC,"[11]; E. faecium strain PBS # 965, tetM",8 µg/mL
same,MIC,"[11]; E. faecium strain PBS # 1323, tetK",2 µg/mL
same,MIC,"[11]; E. faecium strain PBS # 1324, tetO",2 µg/mL
same,MIC50,[11]; E. faecium [VRE] (30 isolates),0.25 µg/mL
same,MIC90,[11]; E. faecium [VRE] (30 isolates),16 µg/mL
same,MIC50,[11]; E. faecium [VSE] (32 isolates),0.12 µg/mL
same,MIC90,[11]; E. faecium [VSE] (32 isolates),16 µg/mL
same,MIC,"[12]; Porphyromonas asaccharolytica 3552, read-out: MIC",8 µg/mL
same,MIC,"[12]; Porphyromonas asaccharolytica 3557, read-out: MIC",4 µg/mL
same,MIC,[13],8 µg/mL
same,MIC,[14],0.5 µg/mL
same,MIC,[15],0.5 µg/mL
same,MIC,[16],0.03 µg/mL
same,MIC Range,[17]; [33],0.06 to 0.5 µg/mL
same,MIC Range,[17]; [34],0.06 to 0.25 µg/mL
same,MIC50,[17]; [33],0.12 µg/mL
same,MIC90,[17]; [33],0.25 µg/mL
same,MIC50,[17]; [34],0.06 µg/mL
same,MIC90,[17]; [34],0.25 µg/mL
same,MIC50,[18]; K. pneumoniae (31 isolates),4 µg/mL
same,MIC90,[18]; K. pneumoniae (31 isolates),> 32 µg/mL
same,MIC,"[18]; K. pneumoniae strain PBS # 266, tetD",64 µg/mL
same,MIC Range,[19],0.25 to 0.5 µg/mL
same,MIC,[20],0.5 µg/mL
same,MIC,[21],0.25 µg/mL
same,MIC,[22],0.5 µg/mL
same,MIC Range,[23],0.5 to 4 µg/mL
same,MIC,[24],1 µg/mL
same,MIC,[25],0.25 µg/mL
same,MIC,[26],1 µg/mL
same,MIC Range,[27]; E. faecalis [tetS] (4 isolates),0.25 to 0.5 µg/mL
same,MIC50,"[27]; Enterococcus faecalis, E. faecalis [VSE] (31 isolates), read-out: MIC50",8 µg/mL
same,MIC90,"[27]; Enterococcus faecalis, E. faecalis [VSE] (31 isolates), read-out: MIC90",16 µg/mL
same,MIC,[28],0.06 µg/mL
same,MIC Range,[29]; S. pyogenes [tetS] (5 isolates),0.25 to 0.5 µg/mL
same,MIC,"[29]; Streptococcus pyogenes, S. pyogenes strain PBS # 330, tetO",8 µg/mL
same,MIC50,"[29]; Streptococcus pyogenes, S. pyogenes (32 isolates), read-out: MIC50",0.06 µg/mL
same,MIC Range,[30],0.25 to 2 µg/mL
same,MIC,[31],0.25 µg/mL
same,MIC50,[32],0.06 µg/mL
